In publication PMC7717600, “Novel [(N-alkyl-3-indolylmethylene)hydrazono]oxindoles arrest cell cycle and induce cell apoptosis by inhibiting CDK2 and Bcl-2: synthesis, biological evaluation and in silico studies” (Journal of Enzyme Inhibition and Medicinal Chemistry, 2020):
Read-outs that look alike come from different tables or passages of the source.

How the values were obtained:
A498 = test: cells; conditions: Homo sapiens
HCT-116 = test: cells; conditions: Homo sapiens
SK-OV-3 = test: cells; conditions: Homo sapiens, SK-OV-3, read-out: LC50
OVCAR-4 = test: cells; conditions: Homo sapiens
ACHN = test: cells; conditions: Homo sapiens
EKVX = test: cells; conditions: Homo sapiens
CCRF-CEM = test: cells; conditions: Homo sapiens
[1] = tested on: breast T-47D cancer cells; test: Annexin V-FITC/PI apoptosis assay; assay type: cell-based, human
Text: In an attempt to further investigate whether the antiproliferative activity for conjugate 8a is harmonious with the apoptosis induction within T-47D cells pointed out by the increased cell population in sub-G1 phase in 8a-treated T-47D cells (Figure 3), Annexin V-FITC/PI dual staining analysis was used for the apoptosis assay (Figure 4).
Phosphatidylserine externalisation effect of conjugate 8a over breast T-47D cancer cell line was investigated using Annexin-V-FITC Apoptosis Detection Kit by flow cytometry, as described earlier.
4.2.4. Cell Cycle Analysis
Subsequently, the treated cells
Annexin V-FITC Apoptosis Assay
period of 30 min at 4 °C.
Technologies, Darmstadt, Germany).
μl PEG20.000). […] H3PO4. Aliquots were […]

SN12C = test: cells; conditions: Homo sapiens
MDA-MB-231/ATCC = test: cells; conditions: Homo sapiens
SNB-19 = test: cells; conditions: Homo sapiens
MALME-3M = test: cells; conditions: Homo sapiens
SW-620 = test: cells; conditions: Homo sapiens
NCI-H23 = test: cells; conditions: Homo sapiens
RXF 393 = test: cells; conditions: Homo sapiens
HOP-92 = test: cells; conditions: Homo sapiens
OVCAR-3 = test: cells; conditions: Homo sapiens
Bcl-2 = Bcl-2 (Homo sapiens, UniProt P10415); test: Bcl-2 inhibitory activity; assay type: biochemical; conditions: Bcl-2, mean ± SE of three
Sequence of Bcl-2 (P10415 whole entry): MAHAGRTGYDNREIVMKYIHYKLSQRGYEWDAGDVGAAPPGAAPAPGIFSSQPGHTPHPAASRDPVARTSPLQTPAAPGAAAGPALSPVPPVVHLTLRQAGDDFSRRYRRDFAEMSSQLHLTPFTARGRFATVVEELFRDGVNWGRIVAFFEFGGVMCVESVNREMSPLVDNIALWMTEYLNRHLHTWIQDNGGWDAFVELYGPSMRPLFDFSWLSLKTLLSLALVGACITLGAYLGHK
Description: These assays were carried out as reported earlier[38]^,[39].

NCI-H226 = test: cells; conditions: Homo sapiens
SF-539 = test: cells; conditions: Homo sapiens
TK-10 = test: cells; conditions: Homo sapiens
MCF7 = test: cells; conditions: Homo sapiens
CDK2 = CDK2 (Homo sapiens, UniProt P24941); test: CDK2 inhibition assay; assay type: biochemical; conditions: CDK2, mean ± SE of three
Description: and of the test compound in a final volume of 10 µL, all in a reaction buffer (60 mM HEPES-NaOH, pH 7.5, 3 mM MgCl2, 3 mM MnCl2, 3 μM Na-orthovanadate, 1.2 mM DTT, 2.5 μg / 50 μl PEG20.000). The reactions were stopped by adding 5 µL of 3 % aq. H3PO4. Aliquots were spotted onto P-81 phosphocellulose (Whatman), washed 3× with 0.5 % aq. H3PO4 and finally air-dried. Kinase inhibition was quantified using a FLA-7000 digital image analyzer (Fujifilm).

KM12 = test: cells; conditions: Homo sapiens
[2] = tested on: panel of 59 human cancer cell lines; test: NCI screening, panel and subpanel summaries; conditions: for GI50: Homo sapiens
Description: GI50 values reflect the level for growth inhibitory effect, whereas TGI represents cytostatic impact. In addition, LC50 parameter is considered to be the cytotoxicity parameter for the examined hybrid.
Furthermore, dividing the full-panel MG-MID (µM) for the examined derivative by its individual subpanel MG-MID (µM) provides an index which is regarded as a measure for its selectivity.
The NCI-USA anticancer screening was carried out following the NCI, Bethesda, Drug Evaluation Branch protocol[22–24], utilising the SRB protein assay[21], as reported earlier[34]^,[35].
NCI-in vitro antitumor activity towards 59 cancer cell lines
The cytotoxicity assays were performed at National Cancer Institute (NCI), Bethesda, USA (against 59 cell lines). The human tumor cell lines of the cancer screening panel were grown in
screening experiment, cells were inoculated into 96 well microtiter plates in 100 µ at plating densities ranging from 5000 to 40,000 cells/well depending on the doubling time of individual
and 100% relative humidity for 24 h prior to addition of experimental drugs. After 24 h, two
plates of each cell line were fixed in situ with trichloroacetic acid (TCA), to represent a
measurement of the cell population for each cell line at the time of drug addition (Tz).
Experimental drugs were solubilized in dimethyl sulfoxide at 400-fold the desired final
maximum test concentration and stored frozen prior to use. At the time of drug addition, an
aliquot of frozen concentrate was thawed and diluted to twice the desired final maximum test
concentration with complete medium containing 50 µg/ml gentamicin. Additional four, 10-fold
or ½ log serial dilutions were made to provide a total of five drug concentrations plus control.
Aliquots of 100 µl of these different drug dilutions were added to the appropriate microtiter wells
already containing 100 µl of medium, resulting in the required final drug concentrations.
Triplicate wells were prepared for each individual dose. Following drug addition, the plates were

HL-60(TB) = test: cells; conditions: Homo sapiens
SF-295 = test: cells; conditions: Homo sapiens
UO-31 = test: cells; conditions: Homo sapiens
HT29 = test: cells; conditions: Homo sapiens
MOLT-4 = test: cells; conditions: Homo sapiens

CCCn1cc(C=NN=C2C(=O)Nc3ccc(C)cc32)c2ccccc21 [Compound 8a]
GI50 (A498; A498): 1.37 µM | CC50 (A498; A498, read-out: LC50): > 100 µM | GI50 (HCT-116; HCT-116): 1.75 µM | CC50 (HCT-116; HCT-116, read-out: LC50, HCT-116): 19 µM | CC50 (SK-OV-3): > 100 µM | GI50 (OVCAR-4; OVCAR-4, OVCAR-4): 0.935 µM | CC50 (OVCAR-4; OVCAR-4, read-out: LC50): > 100 µM | GI50 (ACHN): 3.56 µM | CC50 (ACHN; read-out: LC50): > 100 µM | GI50 (EKVX): 2.36 µM | CC50 (EKVX; read-out: LC50): > 100 µM | GI50 (CCRF-CEM): 1.94 µM | CC50 (CCRF-CEM; read-out: LC50): > 100 µM | apoptotic cells, early apoptotic phase ([1]; control 0.26%): 4.82% | apoptotic cells, late apoptotic phase ([1]; control 0.47%): 14.62% | increase in total apoptosis ([1]; vs untreated control): about 26 fold | GI50 (SN12C): 3.2 µM | CC50 (SN12C; read-out: LC50): > 100 µM | GI50 (MDA-MB-231/ATCC; MDA-MB-231): 1.81 µM | CC50 (MDA-MB-231/ATCC; MDA-MB-231, read-out: LC50): > 100 µM | GI50 (SNB-19; SNB-19): 4.24 µM | CC50 (SNB-19; SNB-19, read-out: LC50): > 100 µM | GI50 (MALME-3M): 1.88 µM | CC50 (MALME-3M; read-out: LC50): > 100 µM | GI50 (SW-620; SW-620): 2.97 µM | CC50 (SW-620; SW-620, read-out: LC50): > 100 µM | GI50 (NCI-H23; NCI-H23): 3.13 µM | CC50 (NCI-H23; NCI-H23, read-out: LC50): > 100 µM | GI50 (RXF 393; RXF 393): 2.17 µM | CC50 (RXF 393; RXF 393, read-out: LC50): > 100 µM | GI50 (HOP-92; HOP-92): 1.87 µM | CC50 (HOP-92; HOP-92, read-out: LC50): > 100 µM | GI50 (OVCAR-3; OVCAR-3): 1.36 µM | CC50 (OVCAR-3; OVCAR-3, read-out: LC50): > 100 µM | IC50 (Bcl-2): 0.46 ± 0.02 µM | GI50 (NCI-H226; NCI-H226): 2.95 µM | CC50 (NCI-H226; NCI-H226, read-out: LC50): > 100 µM | GI50 (SF-539; SF-539): 2.69 µM | CC50 (SF-539; SF-539, read-out: LC50): > 100 µM | GI50 (TK-10; TK-10): 11.1 µM | CC50 (TK-10; TK-10, read-out: LC50): > 100 µM | GI50 (MCF7; MCF7): 1.54 µM | CC50 (MCF7; MCF7, read-out: LC50): > 100 µM | IC50 (CDK2): 0.85 ± 0.03 µM | GI50 (KM12; KM12): 3.22 µM | CC50 (KM12; KM12, read-out: LC50): > 100 µM | mean GI % ([2]; 10 µM single dose, all cell lines): 59% | Mean Growth Percent ([2]; 1.00E-5 Molar, one dose mean graph): 41.08% | Selectivity index ([2]; Breast Cancer subpanel): 1.00 | Selectivity index ([2]; CNS Cancer subpanel): 0.75 | Selectivity index ([2]; Colon Cancer subpanel): 1.25 | GI50 ([2]; read-out: Full panel MG-MID (GI50), five-dose): 3.1 µM | GI50 ([2]; read-out: GI50 values range, five-dose, across cell lines except UACC-257, TK-10, HS 578 T): 1.17 to 8.41 µM | GI50 ([2]; read-out: MG-MID (GI50), Breast Cancer subpanel): 3.09 µM | GI50 ([2]; read-out: MG-MID (GI50), CNS Cancer subpanel): 4.08 µM | GI50 ([2]; read-out: MG-MID (GI50), Colon Cancer subpanel): 2.47 µM | GI50 ([2]; read-out: MG-MID (GI50), Leukaemia subpanel): 1.33 µM | GI50 ([2]; read-out: MG-MID (GI50), Melanoma subpanel): 3.45 µM | GI50 ([2]; read-out: MG-MID (GI50), NSCL Cancer subpanel): 3.22 µM | GI50 ([2]; read-out: MG-MID (GI50), Ovarian Cancer subpanel): 3.24 µM | GI50 ([2]; read-out: MG-MID (GI50), Prostate Cancer subpanel): 2.85 µM | GI50 ([2]; read-out: MG-MID (GI50), Renal Cancer subpanel): 4.23 µM | GI50 ([2]; read-out: sub-panel GI50 (MG-MID) range, five-dose): 1.33 to 4.23 µM | Selectivity index ([2]; Leukaemia subpanel): 2.33 | Selectivity index ([2]; Melanoma subpanel): 0.89 | Selectivity index ([2]; NSCL Cancer subpanel): 0.96 | Selectivity index ([2]; Ovarian Cancer subpanel): 0.95 | Selectivity index ([2]; Prostate Cancer subpanel): 1.08 | Selectivity index ([2]; Renal Cancer subpanel): 0.73 | Log10GI50 _MID ([2]; five-dose mean graph): -5.59 Molar | Log10LC50 _MID ([2]; five-dose mean graph): -4.12 Molar | Log10TGI _MID ([2]; five-dose mean graph): -4.69 Molar | TGI range ([2]; five-dose, against 22 cancer cell lines): 2.96 to 8.03 µM | TGI interval ([2]; five-dose, remaining cancer cell lines): 10.6 to 96.6 µM | selectivity ratios range ([2]; full-panel MG-MID / subpanel MG-MID): 0.73 to 2.33 | GI50 (HL-60(TB); HL-60): 1.31 µM | CC50 (HL-60(TB); HL-60, read-out: LC50): > 100 µM | GI50 (SF-295; SF-295): 8.41 µM | CC50 (SF-295; SF-295, read-out: LC50): > 100 µM | GI50 (UO-31; UO-31): 2.28 µM | CC50 (UO-31; UO-31, read-out: LC50): > 100 µM | GI50 (HT29; HT-29): 3.4 µM | CC50 (HT29; HT-29, read-out: LC50): > 100 µM | GI50 (MOLT-4; MOLT-4, MOLT-4): 0.682 µM | CC50 (MOLT-4; MOLT-4, read-out: LC50): > 100 µM
